The values that follow come from PMC13289212, “HIVIL: A human in vitro inflammatory liver model recapitulates immune-associated drug effects with high predictivity” (NAM journal, 2025).

Where two headings read alike, the source gives them in different places.

The conditions of data set [1]: binary classification by human hepatotoxicity; ref Thakkar et al. 2020; cited from earlier work.
The test system of data set [2] is IL-6. In words: IL-6 response in HIVIL using THP-1 macrophages co-cultured with iHeps. It is filed as cell-based, human. Particulars: HIVIL with THP-1 instead of iKCs, result in words. An excerpt:
(§1) Human iPSC cell line iPS (IMR90)-4 was purchased from WiCell Research Institute (Madison, WI), and maintained with a feeder-free method according to the instruction from […] Technologies (Vancouver, BC, Canada). The protocol of differentiation towards iKCs and iHeps as described previously with slight modification ([Tasnim et al., 2019]; [Cai et al., 2012]), respectively. The re-optimized protocol to generate iKCs is discussed in Results section. More details are provided in Supplementary Methods. After differentiation, iKCs was harvested using 0.05 % trypsin-EDTA (Gibco, Waltham, Massachusetts, USA), while iHeps were dissociated with TrypLE^TM (Gibco). iHep suspension was further filtered through a 40 µm cell strainer to remove extracellular matrix clumps. Cell suspension was centrifuged at 1000 rpm for 5 min. For co-culture set up, tissue culture plates were coated with Rat tail collagen I (Gibco) diluted 100-fold in 0.02 N acetic acid, and incubated at 37 °C for 1 h and washed 3 times with PBS. According to the protocol optimized by [Tasnim et al. (2019)], iKCs was firstly seeded at a density of 14,000 per well on 96-well plate with Advanced DMEM (plus supplements) containing 5 % FBS. On the following day, iHeps were added at a density of 35,000 per well in Williams’ Medium E (plus supplements) (iHep: iKCs ratio = 2.5: 1). This reflects the physiological ratio of these cells in vivo under inflammatory conditions ([Tasnim et al., 2021]). Fresh media containing drugs was applied to co-cultures the next day. 50,000 cells were seeded to establish iHeps monoculture. THP-1 cells were kindly obtained from Dr. Eliza Fong and cultured as described by [Zeng et al. (2015)]. Details provided in Supplementary Methods.
THP-1 maintenance and differentiation: THP-1 monocytic lineage was maintained in RPMI 1640 with 10% FBS. For differentiation to macrophages, suspension cells were collected and subjected to 2-day phorbol 12-myristate 13-acetate (PMA) treatment (50 ng/ml), followed by a 1-day PMA-free medium resting. THP-1 macrophages were trypsinzed and used for co-culture as described in Material and methods.
Enzyme-linked immunosorbent assay (ELISA) for measurement of cytokines: Interleukin-6 (IL-6), interleukin-10 (IL-10) and tumor necrosis factor alpha (TNFα) levels in the media were measured using the corresponding human-based ELISA kits (Abcam, Cambridge, United Kingdom) according to manufacturer’s instructions. The cytokine production from dosed cells was normalized with the viability value from the same well. The normalized cytokine level upon drug treatments was further presented as percentage of DMSO+LPS. Normalization to viability per well ensures that any changes in cytokines are not due to changes in cell numbers upon drug treatment and normalization to DMSO+LPS allows better comparison between different batches of experiments. This normalization approach has been used in previous studies (Rose et al. 2016).

Data set [3] concerns IL-6. Also on record: method as in Steuerwald et al. 2013; Mahdy et al. 2002; Kang et al. 2001. Particulars: ref Steuerwald et al. 2013; Mahdy et al. 2002; Kang et al. 2001; cited from earlier work.
In data set [4] the test system is IL-6. In words: IL-6 ELISA in HIVIL (iKCs co-cultured with iHeps, LPS, 48 hr). It is filed as cell-based, human. Particulars: HIVIL; for IC50: Homo sapiens, LPS, 48 hr.
Text: as §1, with “The re-optimized protocol to generate iKCs is discussed in Results section.” left out
(§2) Stock solutions of drugs were prepared in dimethyl sulfoxide (DMSO) and dissolved in medium prior to use. […] For these two drugs, the highest DMSO concentration was 1 %. Supernatant was collected at 48 hr for measurement of cytokines, and remaining cells were subjected to viability assay prior to lysis for RNA extraction.
(§3) Enzyme-linked immunosorbent assay (ELISA) for measurement of cytokines: Interleukin-6 (IL-6), interleukin-10 (IL-10) and tumor necrosis factor alpha (TNFα) levels in the media were measured using the corresponding human-based ELISA kits (Abcam, Cambridge, United Kingdom) according to manufacturer’s instructions. The cytokine production from dosed cells was normalized with the viability value from the same well. The normalized cytokine level upon drug treatments was further presented as percentage of DMSO+LPS. […] This normalization approach has been used in previous studies (Rose et al. 2016).
For orientation: An ELISA detects its analyte on a solid surface through an enzyme-linked reagent.

For data set [5] the following is noted: Cammett et al. 2009, Mendes et al. 2014, cited from earlier work.
The conditions of data set [6]: FDA-labeling information; ref Chen et al. 2016; cited from earlier work.
Data set [7] concerns IL-6. Details: method as in ref Hassan et al. 2016; Giustarini et al. 2019; Higuchi et al. 2012; Dik et al. 2018. Particulars: ref Hassan et al. 2016; Giustarini et al. 2019; Higuchi et al. 2012; Dik et al. 2018; cited from earlier work.
The test system of data set [8] is IL-6. The following applies: 858.6 μM, 1 μg/mL of LPS; ref Li et al. 2020; cited from earlier work.
Data set [9] has as its system TNFα. The following applies: ref Shaw et al. 2010; Zou et al. 2009; Bekker et al. 2012; Gandhi et al. 2013; Heidari et al. 2019; cited from earlier work.
In data set [10] the test system is HIVIL (iKCs co-cultured with iHeps). Briefly: AlamarBlue cell viability in HIVIL. The following applies: Homo sapiens, 48 h, read-out: IC50: viability. How it is done: as §2
(The colour change of resazurin is a common sign of viable cells or microbes.)

The test system of data set [11] is TNFα. Briefly: TNFα ELISA in HIVIL (iKCs co-cultured with iHeps, LPS, 48 hr). It is filed as cell-based, human. Particulars: result in words.
Text: as §1, with “The re-optimized protocol to generate iKCs is discussed in Results section.” left out
as §2, §3

The conditions of data set [12]: ref Ho et al. 2015; Kaplowitz 2005; Verma and Kaplowitz 2009; cited from earlier work.
Data set [13] deals with IL-6. Briefly: Optimization of stimulator and duration: IL-6 production. It is filed as cell-based, human. From the text: In order to evaluate the time-dependent inflammatory responses, we measured interleukin-6 (IL-6) production within 48 hr post-LPS treatment.
The mark [14] stands for this setting: ref in each cell: Ademisoye et al. 2018, Xu et al. 2008, Agabeyoglu and Incecayir 2009, Rojanasthien et al. 2007, Reunanen et al. 1992, Li et al. 2002, Hong-mei et al. 2013, Bareggi et al. 1987, Jiang et al. 2008.

Usually Cmax stands for the maximum level reached in the sampled fluid or tissue. Take `CCN(CC)Cc1cc(Nc2ccnc3cc(Cl)ccc23)ccc1O` [AQ, amodiaquine]: the DILIst in data set [1] is given as 1. The “drug-specific IL-6 response with THP-1 macrophages” value (from here on “drug-specific IL-6 response”) in the data set on IL-6 [2] is given as “failed to replicate IL-6 increases”. The “Reported human responses: IL-6” value in the data set on IL-6 [3] is “IL-6↑ (Steuerwald et al. 2013)”. In the data set with IL-6 [4] (10 μM), this compound registered an IL-6 induction of 1.47 fold. Further, in data set [5] (setting [14]), the Cmax was 0.1 µM.
In the case of `NC(=O)N1c2ccccc2C=Cc2ccccc21` [CBZ, carbamazepine], the DILIst in data set [1] was 1. Besides, in data set [6], the DILIrank result was “most”. For the same compound, in the data set on IL-6 [4], the “group by drug-dependent IL-6 production” value is on record as “dose-dependent induction” and the “increase in IL-6” value was 1.7 fold. Also, the Cmax in data set [5] (setting [14]) was 25.3 µM. Besides, the “Reported in-vivo (murine) responses: IL-6” value in the data set with IL-6 [7] is “IL-6↑(Higuchi et al. 2012)”.
For `NNC(=O)c1ccncc1` [INH, isoniazid], in data set [1], the DILIst is on record as 1. In the data set on IL-6 [2], the “drug-specific IL-6 response” value is “failed to replicate IL-6 increases”. Moreover, in data set [6], the DILIrank entry was “most”. Besides, the “Reported human responses: IL-6” value in the data set on IL-6 [3] is given as “IL-6↑ (Steuerwald et al. 2013)”. The “changes in IL-6 levels” value in the data set with IL-6 [8] is given as “did not show any changes”. In addition, the IL-6 induction result with IL-6 [4] (all doses tested) is on record as “at least 1.2 fold”. Besides, the “Reported in-vivo (murine) responses: IL-6” value in the data set on IL-6 [7] is recorded as “IL-6↑ (Hassan et al. 2016)”.
On to `Nc1nnc(-c2cccc(Cl)c2Cl)c(N)n1` [LTG, lamotrigine], for which, in data set [1], the DILIst is given as 1. The “drug-specific IL-6 response” value in the data set with IL-6 [2] is listed as “failed to replicate IL-6 increases”. For the same compound, in data set [6], the DILIrank entry was “most”. Also, the “Reported human responses: IL-6” value in the data set on IL-6 [3] is given as “IL-6↑(Steuerwald et al. 2013)”. In the data set with IL-6 [4], the “dose-dependent increase in IL-6 levels over baseline” value was 1.5- to 2 fold. Besides, the Cmax in data set [5] (setting [14]) was 9.8 µM.
As a reminder, the IC50 is the concentration that gives 50% inhibition. Regarding `Cc1ccnc2c1NC(=O)c1cccnc1N2C1CC1` [NVP, nevirapine], in data set [1], the DILIst is 1. The “Reported in-vivo (murine) responses: TNFα” value in the data set on TNFα [9] is “TNFα↑ (Bekker et al. 2012)”. In addition, the DILIrank result in [6] is “most”. The IC50 in data set [10] was 2610 µM; in the data set with IL-6 [4] it was 1070 µM. Besides, the TNFα induction entry with TNFα [11] is “all concentrations”. Also, the “group by drug-dependent IL-6 production” value with IL-6 [4] is “dose-dependent inhibition”.
Regarding `O=C1NC(=O)C(c2ccccc2)(c2ccccc2)N1` [PHT, phenytoin], the DILIst in data set [1] was 1. The “drug-specific IL-6 response” value with IL-6 [2] is reported as “failed to replicate IL-6 increases”. Also, the DILIrank result in data set [6] was “most”. Moreover, in the data set on IL-6 [3], the “Reported human responses: IL-6” value is “IL-6↑ (Steuerwald et al. 2013)”. Besides, the “dose-dependent increase in IL-6 levels over baseline” value in the data set on IL-6 [4] is 1.5- to 2 fold. Further, in data set [5] (setting [14]), the Cmax was 15.4 µM.
Turning to `CCCc1cc(=O)[nH]c(=S)[nH]1` [PTU, propylthiouracil], the DILIst in data set [1] is 1. Further, in the data set with TNFα [9], the “Reported in-vivo (murine) responses: TNFα” value is “TNFα↑ (Heidari et al. 2019)”. Further, the DILIrank result in data set [6] was “most”. Also, in the data set with TNFα [11], the TNFα induction entry is on record as “all concentrations”. For the same compound, in the data set with IL-6 [4], the “group by drug-dependent IL-6 production” value is “dose-dependent inhibition” and half-maximal inhibition (IC50) required 259 µM. For the same compound, the Cmax in data set [5] (setting [14]) is 17.6 µM. Further, the Cmax in data set [5] (ref in each cell: Xu et al. 2008) is 17.6 µM.
For `NC(=O)c1cnccn1` [PZA, pyrazinamide], the DILIst in [1] is reported as 1. For the same compound, the DILIrank result in [6] was “less”. Besides, the “group by drug-dependent IL-6 production” value in the data set on IL-6 [4] is “no dose-dependent changes”. Besides, in [5] (setting [14]), the peak concentration (Cmax) was 407 µM. Also, the Known immune-mediated effects result in data set [12] is “×”.
As for `CN(C/C=C/C#CC(C)(C)C)Cc1cccc2ccccc12` [TBF, terbinafine], the DILIst in [1] was 1. Also, the DILIrank result in data set [6] was “most”. Besides, the “group by drug-dependent IL-6 production” value with IL-6 [4] was “no dose-dependent changes”. In data set [5] (setting [14]), the Cmax is 3.4 µM. Also, the Known immune-mediated effects result in [12] is “×”.
Consider lipopolysaccharide [LPS], for which the “IL-6 production compared to vehicle control” value in the data set with IL-6 [13] (24 hr post-LPS treatment) was found to be 10.15 fold; with IL-6 [13] (48 hr post-LPS treatment) it was 4.70 fold.
Turning to penicillin, the DILIst in data set [1] is recorded as 1. In data set [6], the DILIrank result is reported as “less”. Moreover, in the data set with IL-6 [4], the “group by drug-dependent IL-6 production” value is “no dose-dependent changes”. For the same compound, the Known immune-mediated effects result in data set [12] is “×”.
